Laboratory results taken from patent US6514942B1, “Methods and compositions for stimulating T-lymphocytes” (The Board of Regents, The University of Texas System, priority 1995, dated 2003).
Entries after “also recorded” stand apart in the source; their conditions may differ.

Columns and labels:
Type in all cases: cell-based, human
[1] = system: C1R:A2 cells; assay: Lysis of peptide-sensitized C1R:A2 cells by CTL cultures induced in vitro with C43 and C84; conditions: E:T 10:1, donor 51
[2] = system: C1R:A2 cells; assay: Ag specificity of the 41.CD8+ CTL line on peptide-pulsed targets; conditions: peptide-pulsed C1R:A2, E:T 10:1
Description: (§1) FIG. 2A. Ag specificity of the 41.CD8^+ CTL line. C1R:A2 cells were pre-pulsed with either HER-2 peptides or control MUC-1 peptides before being incubated with effectors. The effector to target ratio was 10:1. C1R:A1 and C1R:A3 targets were pre-pulsed with the same peptides in the same conditions as C1R:A2 cells. Results for C1R:A1 and C1R:A3 show the difference between specific lysis of targets preincubated with peptides and control C1R:A1 and C1R:A3 targets. Specific lysis of control C1R:A1 and C1R:A3 cells was less than 10% at the same E:T ratio. Shown in FIG. 2A are results after 4 hrs' incubation.
(§2) Tumor cells and fibroblasts were labeled with 200 μCi of ^51Cr (Na^51CrO4; Amersham, Arlington Heights, Ill.) for 90 min at 37° C. (Ioannides et al., 1991). Lymphoblastoid cells and HLA-A2 transfectants were labeled overnight in RPMI-FCS, then washed three times and incubated with effector cells in RPMI-FCS in an incubator with 5%. CO2 (Bednarek et al., 1991; Gammon et al., 1992). When peptide recognition was determined, targets were incubated with 25 μM of peptides overnight during ^51Cr labeling or with 10 μM peptide for 2 h at 37° C. in RPMI-FCS then washed three times before being incubated with effector cells. Separate controls for spontaneous and total lysis were made for each peptide-pulsed target (Ioannides et al., 1991; Bednarek et al., 1991; Gammon et al., 1992). After 4-5 h, 100 μl of supernatant was collected and counted. To determine maximum lysis in 20-h assays, plates were left undisturbed in the incubator and the supernatant was collected after overnight incubation. For cold target inhibition studies, C1R:A2 cells were preincubated with HER-2 or control peptides overnight, then washed and admixed with ^51Cr-labeled targets at 2:1 and 6:1 (cold:hot targets) ratios. Percentage lysis was calculated from the formula: 100×[(E−S)/(T−S)], where E is experimental release, S is release in the absence of CTL, and T is release in 2 M HCl.
These cultures were propagated and expanded by periodic cycles of restimulation with peptide-pulsed fresh autologous PBMC as antigen-presenting cells. After the fourth stimulation cells were gradually adapted to growth in RPMI-FCS by replacing 25% of the culture medium every 3 days with RPMI-FCS over a period of 2 weeks. CD3^+CD8^+CD4^− cells were isolated from bulk CTL cultures by positive selection on anti-CD8 mAb-coated culture flasks (AIS Micro CELLector, Applied Immune Sciences, Menlo Park, Calif.) as described (Letessier et al., 1991). Isolated CD8^+ cells were restimulated with HER-2 peptide-pulsed PBMC, either autologous or in some instances allogeneic that matched only HLA-A2 with the responding cells. […]

[3] = system: C1R:A1 cells (HLA-A1 transfectants); assay: as above
Description: as §1
Tumor cells and fibroblasts were labeled with 200 μCi of ^51Cr (Na^51CrO4; Amersham, Arlington Heights, Ill.) for 90 min at 37° C. (Ioannides et al., 1991). Lymphoblastoid cells and HLA-A2 transfectants were labeled overnight in RPMI-FCS, then washed three times and incubated with effector cells in RPMI-FCS in an incubator with 5%. […] When peptide recognition was determined, targets were incubated with 25 μM of peptides overnight during ^51Cr labeling or with 10 μM peptide for 2 h at 37° C. in RPMI-FCS then washed three times before being incubated with effector cells. […] After 4-5 h, 100 μl of supernatant was collected and counted. […] Percentage lysis was calculated from the formula: 100×[(E−S)/(T−S)], where E is experimental release, S is release in the absence of CTL, and T is release in 2 M HCl. […]

[4] = system: HLA-A2- CTL from donors 14 and 15; assay: Presentation of peptides by HLA-A2+ transfectants to HLA-A2- CTL; conditions: CTL induced with the same peptides
[5] = system: OVA-16 (HLA-A2+, HER-2high) ovarian tumor; assay: Cold target inhibition of OVA-16 lysis by 41.CD8+ CTL with peptide-pulsed C1R:A2 cells; conditions: cold:hot 2:1, E:T 10:1, 4- and 20-h assays
Description: (§3) FIG. 4A. Target specificity of the 41.CD8^+ CTL were tested for the ability to lyse 5^1Cr-labeled OVA-16 at an E:T ratio of 10:1. C1R:A2 cells (A2.1) were incubated with synthetic peptides (D125, C43, C85), washed, and used in cold target inhibition studies at a cold:hot ratio of 2:1. Cytotoxicity studies were performed for 5 hr. Results represent the mean of three determinations. The variability between samples was less than 10%. The differences between determination are statistically significant (P<0.03) as determined by Student's t test. Percentage inhibition is indicated in parentheses.
as §3, with “FIG. 4B.” for “FIG. 4A.”, “lyse ^51Cr-labeled” for “lyse 5^1Cr-labeled”, “for 20” for “for 5”
as §2
To confirm that the 41.CD8^+ CTL line recognizes epitopes on HER-2^high tumors contained on peptides used for stimulation, cold target inhibition studies were performed. […]

[6] = system: C1R:A2 and T2 cells; assay: Lysis by LAK cells in presence of peptides
Source text: It is unlikely that tumor killing by 41.CD8^+ CTL reflects LAK type activity. LAK cells lyse K562 with higher efficiency than they lyse human tumors (Grimm et al., 1982). Also, both C1R:A2 and SkOV3.A2 were transfected with the same HLA-A2 plasmid expression vector. […] In separate studies, LAK cells lysed effectively both C1R:A2 and T2 cells. This lysis was not affected by C43/C84 or mutated peptides based on this sequence.

Row | Sequence | difference between HER-2 peptide and control targets recognition ([1]; 4-hr assay) | difference between HER-2 peptide and control targets recognition ([1]; 20-hr assay) | recognition by 41.CD8+ CTL line [2] | lysis of peptide pulsed versus control targets by 41.CD8+ CTL [3] | cross-presentation to HLA-A2- CTL [4] | inhibition of tumor lysis by peptide-pulsed cold targets [5] | effect on lysis by LAK cells [6]
1 | ELVSEFSRV [Peptide C84, HER-2:971-979 analog, Met(P9) substituted by Val] | not significant | significant | recognized | failed to elicit a higher lysis of peptide pulsed than of control targets | did not cross-present | inhibit HER-2^high tumor lysis; also recorded: specifically inhibit tumor lysis | not affected
2 | RFRELVSEFSRMAR [Peptide C43, HER-2:968-981 14mer peptide] | not significant | significant | recognized | failed to elicit a higher lysis of peptide pulsed than of control targets | did not cross-present | inhibited the lysis of the OVA-16 tumor; also recorded: inhibit HER-2^high tumor lysis | not affected
